Test results as given in patent US20240424019A1, “SHP1 MODIFIED DENDRITIC CELLS AND EXTRACELLULAR VESICLES DERIVED THEREFROM AND ASSOCIATED METHODS” (BOARD OF REGENTS, THE UNIVERSITY OF TEXAS SYSTEM, priority 2021, published 2024).

Assays:
OT-1 T cells = assay: OT-1 T cell proliferation with OVA-loaded BMDCs; assay type: cell-based, mouse; settings: VitE-treated, OVA-loaded BMDCs vs vehicle, day 3
Method: FIG. 2A: Percentage of human IFN-γ^+CD8^+ T cells in CD8^+ T cells in coculture with vehicle or VitE-treated autologous MoDCs (n=3). FIG. 2B: Representative flow cytometric analysis and quantification of antigen-specific OT-1 T cell proliferation stimulated with OVA-loaded mouse BMDCs that were treated with vehicle or VitE at day 3. FIG. 2C: Tumor growth curves of orthotopic EMT6 tumor-bearing mice treated with vehicle (Ctrl), Vitamin E (VitE), or VitE plus Cyt c (10 mg/kg. i.v, every other day starting on day 3) to deplete DCs (n=8/group). The statistical significance is defined by P-value: *P<0.05, **P<0.01, ***P<0.001. ****P<0.0001.
FIG. 3A: Volcano plot of reverse phase protein array (RPPA) data of mouse BMDCs treated with VitE (50 μg/ml) compared to those treated with vehicle control with tumor conditioned media (TCM) for 48 hours (n=3 independent samples). […] The grey dashed line indicates P-value of 0.05. FIG. 3B: t-SNEs by CyTOF and quantification comparing the intensity of pY564-SHP1 in TADCs from the vehicle-or VitE-treated EMT6 tumors at day 15 post-implantation. FIG. 3C: Top, SHP1 knockdown in BMDCs was effective. […] Right, quantification of OT-1 T-cell numbers under the indicated condition. FIG. 3D: The binding of VitE to purified SHP1 is analyzed by microscale thermophoresis (MST) binding assay. […]

human iPSC-DCs = assay: Activation of human iPSC-derived DCs by flow cytometry; assay type: cell-based; settings: vitamin E 50 μg/ml or TPI-1 1 μg/ml, 72 h, gated on CD11c+
Source text: FIG. 10A: Representative high magnification photomicrographs (100×, 200×, 400×) illustrating the morphology of colonies and individual cells of fully differentiated iPSC-derived DCs (iPSC-DCs) displaying characteristic DC morphology consisting of protrusions and veils of cytoplasm at the end of the differentiation procedure (day 23) after using the differentiation protocol for the addition and withdrawal of growth factors and cytokines. FIG. 10B: Phenotypic characterization of generated human iPSC-DCs. Representative flow cytometry analysis depicting the expression of DC lineage markers by iPSC-DCs gated on the CD11c+ population. Levels of expression of individual markers are shown as red histograms, while non-specific staining by isotype controls is shown as light blue histograms. FIG. 10C: Phenotypic characterization of human iPSC-DCs after treatment with vitamin E or TPI-1 to inhibit SHP1. Representative flow cytometry analysis (left panel) and quantification (right panel) depicting the expression of indicated activity markers by iPSC-DCs gated on the CD11c+population with the treatment of vehicle, vitamin E (50 μg/ml) or TPI-1 (1 μg/ml) for 72 h.
We explored the feasibility of differentiating populations of primary DCs from iPSCs and characterized the phenotype of iPSC-DC with the pharmacological inhibition of SHP1 by vitamin E or TPI-1. […]

## Cc1c(C)c2c(c(C)c1O)CC[C@@](C)(CCC[C@H](C)CCC[C@H](C)CCCC(C)C)O2 [VitE, D-α-Tocopherol]
OT-1 T cells
  antigen-specific OT-1 T cells in coculture: increased the OVA-derived SIINFEKL antigen-specific OT-1 T cells in coculture
Human iPSC-DCs
  expression of DC activation markers on iPSC-DCs: increased expression of DC activation markers CD40 and CD86
